# Data taken from US5057427A, “Method for resolution of stereoisomers” (Sepracor, Inc., priority 1988, dated 1991).
# Structures can show the parent of a compound that is named as a salt.
# How the values were obtained:
# [1] = target: T1, Protease VIII: "Subtilopeptidase A" (subtilisin Carlsberg) (Enzyme B) (Bacillus licheniformis, UniProt P00780); test: Homogeneous aqueous enzymatic resolution (ester hydrolysis) with Enzyme B; format: biochemical; details: for % e.e.: acid product
# T1 sequence (P00780 106-379): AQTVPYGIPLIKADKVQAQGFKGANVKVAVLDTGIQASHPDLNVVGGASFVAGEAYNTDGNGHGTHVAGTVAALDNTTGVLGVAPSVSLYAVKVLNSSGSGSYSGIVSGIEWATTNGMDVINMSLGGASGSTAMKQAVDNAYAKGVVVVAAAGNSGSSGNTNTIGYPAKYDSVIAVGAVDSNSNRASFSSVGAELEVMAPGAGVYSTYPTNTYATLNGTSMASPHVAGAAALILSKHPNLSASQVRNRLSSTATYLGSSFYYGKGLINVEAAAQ
# [2] = system: Protease XXIII: from Aspergillus oryzae (Enzyme A); test: Homogeneous aqueous enzymatic resolution (ester hydrolysis) with Enzyme A; details: for % e.e.: acid product
# Description: 10.0 millimole (mmol) of ibuprofen substrate ester 1 (the methyl sulfonate derivative) was dissolved in 100 ml of 0.2 M phosphate buffer of the appropriate cation (sodium or potassium, to be the same as the substrate counterion) at pH 7.0. 100 mg of enzyme A, as the
# commercial preparation, was added directly to this solution, and the reaction mixture was capped and then shaken briefly until all the enzyme preparation had dispersed or dissolved. The reaction mixture was then allowed to stand at ambient temperature (20°-22° C.) for 20 hours. […] The combined organic layers were backwashed twice with one volume of water, once with one volume of saturated NaCl solution, and then dried over MgSO4.
# Evaporation of the ether under reduced pressure left the resolved ibuprofen acid product; no other purification was performed. The optical rotation was measured in EtOH at a concentration c=1.0 for the ibuprofen acid product.
# In this Example, 0.010 mol of ibuprofen ester 3 (the propyl sulfonate derivative) was dissolved in 100 ml 0.2 M sodium phosphate buffer at pH 7.8, and 150 mg of the commercial enzyme A preparation was added. The reaction was then handled as described for Examples 6.2.1.1-6.2.1.7.
# In this Example, 0.010 mol of ibuprofen ester 2 (the ethyl sulfonate ester in the form of its potassium salt) were dissolved in 125 ml of 0.2 M sodium phosphate buffer at pH 7.0, and 150 mg of enzyme A was added to the reaction mixture as the commercially supplied preparation. The reaction was allowed to proceed for 18 hours, and the resulting product mixture was then worked-up as described above for Examples 6.2.1.1-6.2.1.7.
# 150 mg of Protease XXIII (A), as the commercially available preparation, was added to the reaction mixture, the reaction vessel was capped, and the entire heterogeneous reaction mixture was shaken in a wrist-action shaker for 18 hours. […] This mixture was then extracted twice with 200 ml of diethyl ether. The combined organic layers were backwashed twice with one volume of water, once with one volume of saturated NaCl, and the organic phase was then dried over MgSO4. Evaporation of the ether under reduced pressure left the resolved naproxen acid. No further purification was performed. The optical rotation of the product was measured in CHCl3 at a concentration c=1.0.
# 0.010 mol of naproxen ester 8 (the potassium salt of the ethyl sulfonate ester) was dispersed in 125 ml of 0.2 M sodium phosphate buffer at pH 7.8. 150 mg of enzyme A, as the commercially available preparation, were added, and the reaction handled as described in Example 6.2.1.1.
# 0.010 mol of ibuprofen ester 6 (the compound) were dissolved in 100 ml of 0.2 M sodium phosphate buffer at pH 7.0. 100 mg of enzyme A was added as the commercially available preparation, and the reaction handled as described above in Examples 6.2.1.1-6.2.1.7.
# 2.0 gm (0.0058 mole) of naproxen ester 9 (the sulfomethyl compound) was dissolved in 400 ml of 50 mM sodium phosphate buffer at pH 7.5. To the reaction were added 100 mg of Protease XXIII (A) as the commercially available preparation. After the enzyme had dissolved, the reaction mixture was incubated at 25 degrees for 16 hours. The reaction mixture was then acidified to pH 1-2 by the careful dropwise addition of concentrated HCl, and then it was extracted with ether (3×150 ml). The aqueous layer was retained. The combined organic layers were backwashed with water (2×100 ml), and these aqueous washings were added to the previously retained aqueous layer of the reaction. The ether layer was then washed once with 100 ml of brine, and dried over MgSO4.
# [3] = target: T2, Protease XXVII: "Nagarse" (Enzyme D) (Bacillus amyloliquefaciens, UniProt P00782); test: Homogeneous aqueous enzymatic resolution (ester hydrolysis) with Enzyme D; format: biochemical; details: 150 mg enzyme D, 0.010 mol ester in 100 ml 0.2 M sodium phosphate buffer pH 7.8
# T2 sequence (P00782 108-382): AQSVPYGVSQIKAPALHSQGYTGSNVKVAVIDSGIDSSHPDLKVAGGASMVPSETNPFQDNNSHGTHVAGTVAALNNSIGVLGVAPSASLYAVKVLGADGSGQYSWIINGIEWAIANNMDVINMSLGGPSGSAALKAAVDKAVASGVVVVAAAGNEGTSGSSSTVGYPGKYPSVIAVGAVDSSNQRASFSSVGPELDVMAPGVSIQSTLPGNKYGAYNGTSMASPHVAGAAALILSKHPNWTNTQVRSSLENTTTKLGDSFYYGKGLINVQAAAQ
# [4] = system: Pig Liver Esterase (E); test: Homogeneous aqueous enzymatic resolution (ester hydrolysis) with Enzyme E; format: biochemical; details: 30 mg Pig Liver Esterase (E), 0.010 mol ester in 100 ml 0.2 M sodium phosphate buffer pH 7.8
# [5] = target: T3, Protease XVI: from Bacillus subtilis (Enzyme C) (Bacillus subtilis, UniProt P04189); test: Homogeneous aqueous enzymatic resolution (ester hydrolysis) with Enzyme C; format: biochemical; details: acid product; 100 mg enzyme C, 10 mmol ester in 100 ml 0.2 M phosphate buffer pH 7.0, 20-22° C., 20 hours
# T3 sequence (P04189 107-381): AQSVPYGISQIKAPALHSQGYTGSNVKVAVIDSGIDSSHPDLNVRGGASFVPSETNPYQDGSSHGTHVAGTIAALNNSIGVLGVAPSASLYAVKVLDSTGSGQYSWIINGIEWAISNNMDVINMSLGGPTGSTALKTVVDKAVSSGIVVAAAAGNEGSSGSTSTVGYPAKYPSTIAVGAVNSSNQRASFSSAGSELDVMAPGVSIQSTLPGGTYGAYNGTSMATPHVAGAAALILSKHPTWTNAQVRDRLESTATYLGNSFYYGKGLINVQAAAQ
# [6] = system: protease Prozyme 6 (Enzyme F); test: Homogeneous aqueous enzymatic resolution (ester hydrolysis) with Enzyme F; format: biochemical, Asperqillus oryzae; details: 100 mg Prozyme 6 (F), 10 mmol ester in 100 ml 0.2 M buffer pH 7.0, 25° C., 18 hours
# Description: (Prozyme 6) (F) added. The enzymatic reaction mixtures were capped and briefly shaken until all the substrate had dissolved, and the enzyme had completely dissolved or dispersed. […] Evaporation of the ether left a white solid. Rotations were measured at c=1 in CHCl3.
# The enzymatic reaction mixtures were capped and briefly shaken until all the substrate had dissolved, and the enzyme had completely dissolved or dispersed. […] Evaporation of the ether left a white solid. Rotations were measured at c=1 in CHCl3.
# The reaction was started by adding 100 mg of the protease (F) from the fungus Asperqillus oryzae (from Amano Enzyme Corporation, Prozyme 6, 60,000 units per mg of solid).
# After 20 hours at room temperature, the solution was acidified to pH 2 and extracted with 3 volumes of diethyl ether. The aqueous phase was saved for subsequent workup. The ether phase was washed with two volumes of distilled water and then one volume of saturated sodium chloride, and then it was dried over MgSO4 and subsequently evaporated to dryness. The resolved ibuprofen product recovered was 930 mg of white powder, indicating 45% conversion of racemic ester to acid. The optical rotation was -0.580° (measured at c=1 in ethanol), indicating the R isomer of ibuprofen.
# 35 mg of protease Enzyme F, as the commercial preparation Prozyme 6, were added to the aqueous solution. The reaction flask was capped, and briefly shaken until all the enzyme had dissolved or dispersed. […] The resulting mixture was diluted with one volume of water and was extracted with diethyl ether (2 times 200 ml). The ether layers were combined and backwashed with water (2 times 200 ml), saturated NaCl solution (200 ml), and then dried over MgSO4.
# In this control run, a 0.5 M ester solution of (1) was prepared in 325 ml of 0.1 M sodium phosphate buffer (pH 7.0). The reaction was started by adding 3 gm of the above enzyme (F). The pH was controlled at 7.0 with 8.22 M sodium hydroxide. After 6.49 hours at 30° C., 6.63 ml of hydroxide were added, indicating 37.7% conversion. […]
# [7] = cited from earlier work
# [8] = 100 mg enzyme B, 10.0 mmol ester in 100 ml 0.2 M Na3 PO4 buffer pH 7.0, 25° C., 18 hours
# [9] = 100 mg enzyme A, 10.0 mmol ester in 100 ml 0.2 M buffer pH 7.0, 25° C., 18 hours
# [10] = 100 mg enzyme A, 10 mmol ester in 100 ml 0.2 M phosphate buffer pH 7.0, 20-22° C., 20 hours
# [11] = 150 mg enzyme B, 0.010 mol ester in 100 ml 0.2 M sodium phosphate buffer pH 7.8
# [12] = 150 mg enzyme A, 0.010 mol ester in 100 ml 0.2 M sodium phosphate buffer pH 7.8
# [13] = 100 mg enzyme B, 10 mmol ester in 100 ml 0.2 M phosphate buffer pH 7.0, 20-22° C., 20 hours
# [14] = 100 mg Protease XXIII (A), pH 7.5, 25 degrees, 16 hours
smiles,measurement,setting,value
"CC(CSC(=O)c1ccccc1)C(=O)OCS(=O)(=O)O (racemic) [Compound 16, Potassium Salt of the Sulfomethyl Ester of (+)-S-3-Benzoylthio-2-methylpropanoic Acid]",% CONVERSION,[1]; [8],26%
same,% e.e.,[1]; [8],10%
same,% CONVERSION,[2]; [9],53%
same,% e.e.,[2]; [9],3%
"CC(C)Cc1ccc(C(C)C(=O)OCCS(=O)(=O)O)cc1 (centres unmarked) [Compound 2, Sodium Salt of 2-Sulfoethyl Ester of 2-(4-Isobutylphenyl)propanoic Acid]",% CONVERSION,[2]; [10],22.3%
same,% e.e.,[2]; [10],93.3%
"CC(C)Cc1ccc(C(C)C(=O)OCCCS(=O)(=O)O)cc1 (centres unmarked) [Compound 3, Potassium Salt of 3-Sulfopropyl Ester of 2-(4-Isobutylphenyl)propanoic Acid]",% CONVERSION,[3],32.0%
same,% e.e.,[3]; acid product,91.0%
same,% CONVERSION,[1]; [11],36.4%
same,% e.e.,[1]; [11],98.6%
same,% CONVERSION,[4],12.1%
same,% e.e.,[4]; acid product,88.0%
same,% CONVERSION,[2]; [10],50.0%
same,% CONVERSION,[2]; [12],47.1%
same,conversion of the racemic ester to acid,"[2]; 1.00 gm protease (A), about 1 M ester, 40 ml, pH 7.0, room temperature, 23.9 hours, by NaOH titration",29%
same,% e.e.,[2]; [10],84.2%
same,% e.e.,[2]; [12],97.7%
"CC(C)Cc1ccc(C(C)C(=O)OCCCCS(=O)(=O)O)cc1 (centres unmarked) [Compound 4, Potassium Salt of 4-Sulfobutyl Ester of 2-(4-Isobutylphenyl)propanoic Acid]",% e.e.,[5],61.7%
same,% CONVERSION,[1]; [13],20.0%
same,% e.e.,[1]; [13],92.1%
same,% CONVERSION,[2]; [10],43.2%
same,% e.e.,[2]; [10],97.4%
"CC(C)Cc1ccc(C(C)C(=O)OCCOP(=O)(O)O)cc1 (centres unmarked) [Compound 5, Disodium Salt of the Phosphoric Acid Ester of the 2-Hydroxyethyl Ester of 2-(4-Isobutylphenyl)propanoic Acid]",% e.e.,[5],75.6%
"CC(C)Cc1ccc(C(C)C(=O)OCCCOS(=O)(=O)O)cc1 (centres unmarked) [Compound 6, Potassium Salt of the Sulfuric Acid Ester of 3-Hydroxypropyl Ester of 2-(4-Isobutylphenyl)propanoic Acid]",% CONVERSION,[2]; [10],24.3%
same,% e.e.,[2]; [10],96.5%
"COc1ccc2cc(C(C)C(=O)OCS(=O)(=O)O)ccc2c1 (centres unmarked) [Compound 9, Sodium Salt of Sulfomethyl Ester of 2-(6-Methoxy-2-naphthyl)propanoic Acid]",conversion (enzymatic hydrolysis),"[2]; 100 mg Protease XXIII (A), 2.0 gm ester in 400 ml 50 mM sodium phosphate buffer pH 7.5, 25 degrees, 16 hours",18%
same,enantiomeric excess of R isomer (acid product),[2]; [14],61.2%
same,enantiomeric excess of S isomer (acid from remaining ester after hydrolysis at pH 12),[2]; [14],45.5%
"CC(C)Cc1ccc(C(C)C(=O)OCC[N+](C)(C)C)cc1 (centres unmarked) [Compound 10, Iodide Salt of 2-(N,N,N-Trimethylammonium)ethyl Ester of 2-(4-Isobutylphenyl)propanoic Acid]",% CONVERSION,[2]; [10],30.1%
same,% e.e.,[2]; [10],> 99%
"COc1ccc2cc(C(C)C(=O)OCC[N+](C)(C)C)ccc2c1 (centres unmarked) [Compound 11, Methyl Sulfate Salt of 2-(N,N,N-Trimethylammonium)ethyl Ester of 2-(6-Methoxy-2-naphthyl)propanoic Acid]",% e.e.,[6]; acid product,34.0%
"COc1ccc2cc(C(C)C(=O)OCCC[N+](C)(C)C)ccc2c1 (centres unmarked) [Compound 12, Methyl Sulfate Salt of 3-(N,N,N-Trimethylammonium)propyl Ester of 2-(6-Methoxy-2-naphthyl)propanoic Acid]",% CONVERSION,[6],34.0%
"CC(Cl)C(=O)OCCCS(=O)(=O)O (centres unmarked) [Compound 13, Potassium Salt of 3-Sulfopropyl Ester of 2-Chloropropanoic Acid]",conversion as measured by titrimetry (reaction stopped),"[1]; 20 mg subtilisin protease (B), 8.05 gm ester in 300 ml 0.1 M potassium phosphate buffer pH 7.0",25%
"O=C1CCC(N2C(=O)c3ccccc3C2=O)C(=O)N1 [D-enantiomer of thalidomide, thalidomide]",sedative use,[7]; prescribed for the control of morning sickness during pregnancy,safe and effective sedative
O=C1CC[C@H](N2C(=O)c3ccccc3C2=O)C(=O)N1 [L-thalidomide],teratogenicity,[7]; in vivo,potent teratogen
